Measurements: patent US20030212034A1, “Method of treatment of obesity and paralyzed muscle and ergogenic aids” (priority 2002, published 2003)

Columns and labels:
Assay type in all cases: in vivo, rat
[1] = system: δ-Aminolevulinate synthase; test: Muscle δ-aminolevulinate synthase protein by western blot after AICAR injection
Procedure: […] Beginning with the first injection, controls were pair fed with AICAR-injected rats. […] Muscles were kept frozen at −70° C. until analyzed. Liver, heart, kidney, and fat pads were weighed.
For the chronic effects of AICAR injection muscles were analyzed for glycogen GLUT-4, hexokinase, lactate dehydrogenase, and several mitochondrial enzymes. Hassid, W. Z., & S. Abraham Methods Enzymol. 3:35-36, 1957. GLUT4 was quantitated by western blotting as described previously using GLUT4 polyclonal antibody RaIRGT, Biogenesis, Sandown, N.H.) and horseradish peroxidase-conjugated donkey anti-rabbit IgG (Amersham Life Science, Arlington Heights, Ill.). Holmes, B. F., et al. J. Appl Physiol 87:1990-1995, 1999. δ-Aminolevulinic acid synthase was determined using western blotting techniques as described previously. Li, B., et al. J. Biol. Chem. 274:17534-17540, 1999. […] Cytochrome c was detected by incubating the nitrocellulose blots with a rabbit polyclonal antibody against rabbit heart cytochrome c (Alpha Diagnostics International, San Antonio) followed by horseradish peroxidase-conjugated anti-rabbit immunoglobulin G. Antibody bound GLUT4, δ-Aminolevulinic acid synthase, and cytochrome c were visualized using enhanced chemiluminescence. Protein bands were quantified by densitometry.

[2] = system: carnitine palmitoyl-transferase; test: Muscle carnitine palmitoyl-transferase activity after chronic AICAR injection; conditions: chronic AICAR 1 mg/g daily 4 wk
Procedure: (§1) To determine the effect of chronic injection of AICAR on muscle enyzme activities or expression and on muscle GLUT4, rats were injected subcutaneously (between 8 and 10 a.m.) with AICAR (1 mg/g) or saline vehicle daily for 28±1 days in succession. Beginning with the first injection, controls were pair fed with AICAR-injected rats. Rats were anesthetized by intraperitoneal injection of pentobarbital sodium 22-25 hours after the last AICAR injection and the white and red regions of the quadriceps and the soleus muscles were removed and frozen as described above. Muscles were kept frozen at −70° C. until analyzed. Liver, heart, kidney, and fat pads were weighed.
(§2) For enzyme activity measurements, 10% homogenates were made from the respective muscles in 175 mM KCl, 10 mM GSH, 2 mM EDTA, pH 7.4. This homogenate was frozen and thawed 3 times and mixed thoroughly prior to enzymatic measurements. For succinate dehydrogenase and lactate dehydrogenase, an aliquot of the homogenate was centrifuged at 700×g for 10 min at 4° C. The remainder of the assays were performed on aliquots and dilutions of the mixed whole homogenate. Assays were performed by the following methods: citrate synthase, succinate dehydrogenase, the mitochondrial fraction of malate dehydrogenase, hexokinase, lactate dehydrogenase, carnitine palmitoyl transferase and hydroxyacyl-CoA dehydrogenase. Srere, P. A. Methods in Enzymology 13:3-6, 1969; King, T. E. Methods Enzymol 10:322-335, 1967; Shonk, C. E. & G. E. Boxer, Cancer Res. 24:709-721, 1964; Uyeda, K., & E. Racker, J. Biol Chem 240:4682-4688, 1965; Pesce, A., et al. J. Biol. Chem. 239:1753-1761, 1964; Baldwin, K. M., et al. Am. J. Physiol 222:373-378, 1972; Mole, P. A., et al. J. Clin. Invest. 50:2323-2330, 1971; Kobayashi, A. et al. J. Biochem. 119:775-782, 1996.

[3] = system: cytochrome c; test: Muscle cytochrome c protein by western blot after chronic AICAR injection; conditions: AICAR 4 weeks, FIG. 2
Procedure: as §1
For the chronic effects of AICAR injection muscles were analyzed for glycogen GLUT-4, hexokinase, lactate dehydrogenase, and several mitochondrial enzymes. Hassid, W. Z., & S. Abraham Methods Enzymol. 3:35-36, 1957. GLUT4 was quantitated by western blotting as described previously using GLUT4 polyclonal antibody RaIRGT, Biogenesis, Sandown, N.H.) and horseradish peroxidase-conjugated donkey anti-rabbit IgG (Amersham Life Science, Arlington Heights, Ill.). Holmes, B. F., et al. J. Appl Physiol 87:1990-1995, 1999. δ-Aminolevulinic acid synthase was determined using western blotting techniques as described previously. Li, B., et al. J. Biol. Chem. 274:17534-17540, 1999. […] Protein bands were quantified by densitometry.

[4] = system: citrate synthase; test: Muscle citrate synthase activity after chronic or intermittent AICAR injection; conditions: for citrate synthase activity vs saline-injected controls: AICAR 4 weeks, FIG. 3
Procedure: as §1
(§3) After obtaining results on blunted acute response to an AICAR injection on AMPK in chronically treated rats, an additional experiment was done to determine if intermittent treatment of rats with AICAR would influence the extent of the increase in citrate synthase. This experiment was also of shorter duration to minimize down regulation that appeared to occur with prolonged treatment. Rats were injected for three days (1 mg/g) followed by two days of no treatment. They were then injected for five days, followed by another two days with no treatment and then for three additional days before killing 20-24 hours following the last injection. Rats were anesthetized and tissues were collected and frozen as before. Analytical methods. Muscles from rats killed 1 h after injection of AICAR or saline were analyzed for AMPK, acetyl-CoA carboxylase (ACC) at 0.2 mM citrate, ATP and CP and ZMP. Li, B., et al. J. Biol. Chem. 274:17534-17540, 1999; Winder, W. W., & D. G. Hardie Am. J. Physiol. 270:E299-E304, 1996; Heinz, F., & H. Weisser. Creatine phosphate. In: Methods of Enzymatic Analysis, edited by H. U. Bergmeyer. New York: Academic, 1983, p. 507-514.
as §2

[5] = system: malate dehydrogenase; test: Muscle malate dehydrogenase activity after chronic AICAR injection; conditions: AICAR 1 mg/g daily 4 wk, FIG. 4
Procedure: as §1, §2

[6] = ZMP concentration in muscle after AICAR injection; conditions: for ZMP concentration: one hour after AICAR injection in rats given daily injections for 4 weeks
Procedure: Resuspended ammonium sulfate precipitates of tissue homogenates were analyzed for AMPK activity and acetyl-CoA carboxylase activity as described previously. Li, B., et al. J. Biol. Chem. 274:17534-17540, 1999; Winder, W. W., & D. G. Hardie Am. J. Physiol. 270:E299-E304, 1996. […] ACC activity at 0.2 mM citrate provides some indication of the in vivo activity of AMPK, since ACC is a target for phosphorylation of AMPK. ACC activity has previously been reported to decrease in response to phosphorylation by AMPK. Winder, W. W., & D. G. Hardie Am. J. Physiol. 270:E299-E304, 1996. The acute experiment was also repeated on rats treated with AICAR or saline for 4 weeks to see if the responses of AMPK and ACC to AICAR persisted for the entire treatment period. In both experiments ATP and CP were measured on neutralized perchloric acid extracts of muscle.
as §3

NC(=O)c1ncn([C@@H]2O[C@H](CO)[C@@H](O)[C@H]2O)c1N [AICAR, 5-aminoimidazole-4-carboxamide-1-β-D-ribofuranoside]
effect of a single injection on δ-aminolevulinate synthase ([1]; single AICAR injection 16 hours prior to tissue collection, preliminary, data not shown): negative results | muscle content of δ-aminolevulinic acid synthase vs saline controls ([1]; white quadriceps, AICAR 4 weeks, FIG. 2): significantly increased | CPT activity ([2]; red quadriceps): 0.46 ± 0.02 µmol/g/min | CPT activity ([2]; soleus): 0.62 ± 0.02 µmol/g/min | CPT activity ([2]; white quadriceps): 0.16 ± 0.01 µmol/g/min | cytochrome c protein vs saline controls ([3]; red quadriceps): not in red quadriceps | cytochrome c protein vs saline controls ([3]; white quadriceps): also increased | citrate synthase activity vs saline-injected controls ([4]; red quadriceps): not in red quadriceps | citrate synthase ([4]; red region of the quadriceps, intermittent AICAR injections 1 mg/g): 57.4 ± 2.5 µmol/g/min | citrate synthase activity vs saline-injected controls ([4]; soleus): significantly increased | citrate synthase activity vs saline-injected controls ([4]; white quadriceps): significantly increased | citrate synthase increase vs controls ([4]; white quadriceps, intermittent AICAR injections): 48% | citrate synthase ([4]; white quadriceps, intermittent AICAR injections 1 mg/g (3 days on, 2 off, 5 on, 2 off, 3 on)): 23.0 ± 1.2 µmol/g/min | malate dehydrogenase activity vs controls ([5]; red quadriceps): not in red quadriceps | malate dehydrogenase activity vs controls ([5]; soleus): all increased | malate dehydrogenase activity vs controls ([5]; white quadriceps): all increased | time course of ZMP in muscle after subcutaneous injection of AICAR ([6]; increased 15 minutes following injection): remains elevated for at least two hours | ZMP concentration ([6]; red quadriceps): 0.94 ± 0.08 µmol/g | ZMP concentration ([6]; soleus muscle): 1.15 ± 0.07 µmol/g | ZMP concentration ([6]; white quadriceps): 0.42 ± 0.04 µmol/g
